Experimental data published in the supplement of paper PMC11061612.

Assays:
[1] = compound: C1CC(C1)(C(=O)[O-])C(=O)[O-].N.N.[Pt+2] [Carboplatin]; details: max 10 µM
Method in brief: (§1)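 Cancer cell lines were plated in 1536-well plates in 7.5 μl of DMEM/F12 or RPMI with 10% FBS and kept 24 hours at 37°C and 5% CO2 before 72 hours of dosing, with final DMSO typically 0.2%. CellTiter-Glo 2.0 luminescence measured viability, scaled between blank-well and DMSO-well means. Dose responses were fitted to a two-parameter logistic curve with a non-linear mixed effects model. This fit gives the single-agent IC50.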

[2] = compound: C1CN(CCC1(C(=O)N[C@@H](CCO)C2=CC=C(C=C2)Cl)N)C3=NC=NC4=C3C=CN4 [AZD5363]; details: max 10 µM
Method in brief: as §1

[3] = compound: C=CCn1c(=O)c2cnc(Nc3ccc(N4CCN(C)CC4)cc3)nc2n1-c1cccc(C(C)(C)O)n1 [AZD1775]; details: max 3 µM
Method in brief: as §1

[4] = compound: CC(=O)Nc1cccc(-n2c(=O)n(C3CC3)c(=O)c3c(Nc4ccc(I)cc4F)n(C)c(=O)c(C)c32)c1 [Trametinib]; details: max 1 µM
Method in brief: as §1

[5] = compound: CC(=O)O[C@H]1C(=O)[C@@]2(C)[C@H]([C@H](OC(=O)c3ccccc3)[C@]3(O)C[C@H](OC(=O)[C@H](O)[C@@H](NC(=O)c4ccccc4)c4ccccc4)C(C)=C1C3(C)C)[C@]1(OC(C)=O)CO[C@@H]1C[C@@H]2O [Paclitaxel]; details: max 3 µM
Method in brief: as §1

[6] = compound: CC(=O)c1c(C)c2cnc(Nc3ccc(N4CCNCC4)cn3)nc2n(C2CCCC2)c1=O [Palbociclib]; details: max 10 µM
Method in brief: as §1

[7] = compound: CC(C)n1c(=O)n(C)c2cnc3cc(F)c(-c4ccc(OCCCN5CCCCC5)nc4)cc3c21 [AZD1390]; details: max 0.3 µM
Method in brief: as §1

[8] = compound: CC1(C)CCC(CN2CCN(c3ccc(C(=O)NS(=O)(=O)c4ccc(NCC5CCOCC5)c([N+](=O)[O-])c4)c(Oc4cnc5[nH]ccc5c4)c3)CC2)=C(c2ccc(Cl)cc2)C1 [Venetoclax]; details: max 1 µM
Method in brief: as §1

[9] = compound: CC1=C(C(=CC=C1)Cl)NC(=O)C2=CN=C(S2)NC3=CC(=NC(=N3)C)N4CCN(CC4)CCO [Dasatinib]; details: max 2 µM
Method in brief: as §1

[10] = compound: CC1=CN2[C@@H](C1)C=NC3=CC(=C(C=C3C2=O)OC)OCCCCCOC4=C(C=C5C(=C4)N=C[C@@H]6CC(=CN6C5=O)C)OC [SG3199]; details: max 0.001 µM
Method in brief: as §1

[11] = compound: CCN(CCO)CCCOc1ccc2c(Nc3cc(CC(=O)Nc4cccc(F)c4)[nH]n3)ncnc2c1 [AZD2811]; details: max 1 µM
Method in brief: as §1

[12] = compound: CCc1c2c(nc3ccc(O)cc13)-c1cc3c(c(=O)n1C2)COC(=O)[C@]3(O)CC [SN-38]; details: max 0.3 µM
Method in brief: as §1

[13] = compound: CN(C)CCCOc1ccc(-c2ccc3ncc4c(c3c2)n(C2CCOCC2)c(=O)n4C)cn1 [AZD0156]; details: max 3 µM
Method in brief: as §1

[14] = compound: CN(CC[C@H](CSC1=CC=CC=C1)NC2=C(C=C(C=C2)S(=O)(=O)NC(=O)C3=CC=C(C=C3)N4CCC(CC4)[C@H](C5=CC=CC=C5C6=CC=C(C=C6)Cl)O)S(=O)(=O)C(F)(F)F)CCO [AZD4320]; details: max 1 µM
Method in brief: as §1

[15] = compound: COc1cc(Nc2ncc3c(n2)-c2ccc(Cl)cc2C(c2c(F)cccc2OC)=NC3)ccc1C(=O)O [Alisertib]; details: max 10 µM
Method in brief: as §1

[16] = compound: COc1cc([C@@H]2c3cc4c(cc3[C@@H](O[C@@H]3O[C@@H]5CO[C@@H](C)O[C@H]5[C@H](O)[C@H]3O)[C@H]3COC(=O)[C@H]23)OCO4)cc(OC)c1O [Etoposide]; details: max 10 µM
Method in brief: as §1

[17] = compound: COc1cc2ncnc(Nc3ccc(F)c(Cl)c3)c2cc1OCCCN1CCOCC1 [Gefitinib]; details: max 10 µM
Method in brief: as §1

[18] = compound: COc1cccc(OCCCN)c1-c1cc(Nc2cnc(C#N)cn2)n[nH]1 [Prexasertib]; details: max 1 µM
Method in brief: as §1

[19] = compound: COc1cccc2c1C(=O)c1c(O)c3c(c(O)c1C2=O)C[C@@](O)(C(=O)CO)C[C@@H]3O[C@H]1C[C@H](N)[C@H](O)[C@H](C)O1 [Doxorubicin]; details: max 1 µM
Method in brief: as §1

[20] = compound: COc1nnc2ccc(N3CCC(c4ccc(OCCN5CCN(C)C(=O)[C@H]5C)cc4)CC3)nn12 [AZD5153]; details: max 1 µM
Method in brief: as §1

[21] = compound: CS(=O)(=O)CCNCc1ccc(-c2ccc3ncnc(Nc4ccc(OCc5cccc(F)c5)c(Cl)c4)c3c2)o1 [Lapatinib]; details: max 10 µM
Method in brief: as §1

[22] = compound: C[C@@H](Nc1cc(F)cc(F)c1)c1cc(C(=O)N(C)C)cc2c(=O)cc(N3CCOCC3)oc12 [AZD8186]
Method in brief: as §1

[23] = compound: C[C@@H](Oc1cc(-c2cnn(C3CCNCC3)c2)cnc1N)c1c(Cl)ccc(F)c1Cl [Crizotinib]; details: max 10 µM
Method in brief: as §1

[24] = compound: C[C@@H](c1ccc2nccn2c1)n1nnc2ncc(-c3cnn(C)c3)nc21 [Savolitinib]; details: max 1 µM
Method in brief: as §1

[25] = compound: C[C@@H]1COCCN1C2=NC(=NC(=C2)C3(CC3)[S@](=N)(=O)C)C4=C5C=CNC5=NC=C4 [AZD6738]; details: max 10 µM
Method in brief: as §1

[26] = compound: Cc1c2c(nn1C)CSCc1cc(n(C)n1)CSc1cc(c3ccccc3c1)OCCCc1c(C(=O)O)n(C)c3c-2c(Cl)ccc13 [AZD5991]; details: max 1 µM
Method in brief: as §1

[27] = compound: Cc1cc2ncnn2cc1Nc1ncc2c(n1)n(C1CCOCC1)c(=O)n2C [AZD7648]; details: max 10 µM
Method in brief: as §1

[28] = compound: Cc1nc(-c2cn3c(n2)-c2ccc(-c4cnn(C(C)(C)C(N)=O)c4)cc2OCC3)n(C(C)C)n1 [Taselisib]; details: max 10 µM
Method in brief: as §1

[29] = compound: Cn1cnc2c(F)c(Nc3ccc(Br)cc3Cl)c(C(=O)NOCCO)cc21 [Selumetinib]; details: max 10 µM
Method in brief: as §1

[30] = compound: N#Cc1cnc(Nc2cc(NC[C@H]3CNCCO3)c(C(F)(F)F)cn2)cn1 [SRA737]; details: max 10 µM
Method in brief: as §1

[31] = compound: NC1(c2ccc(-c3nc4ccn5c(=O)[nH]nc5c4cc3-c3ccccc3)cc2)CCC1 [MK-2206]; details: max 10 µM
Method in brief: as §1

[32] = compound: Nc1ccn([C@@H]2O[C@H](CO)[C@@H](O)C2(F)F)c(=O)n1 [Gemcitabine]; details: max 0.3 µM
Method in brief: as §1

[33] = compound: O=C(Nc1ccc2[nH]nc(-c3ccncc3)c2c1)[C@@H]1CCN(CC(=O)N2CCN(c3ccc(-c4ncccn4)cc3)CC2)C1; details: max 5 µM
Method in brief: as §1

[34] = compound: O=C(c1cc(Cc2n[nH]c(=O)c3ccccc23)ccc1F)N1CCN(C(=O)C2CC2)CC1 [Olaparib]; details: max 10 µM
Method in brief: as §1

[35] = compound: O=c1[nH]cc(F)c(=O)[nH]1 [5-Fluorouracil]; details: max 20 µM
Method in brief: as §1

[36] = compound: C1CN(CCC1(C(=O)N[C@@H](CCO)C2=CC=C(C=C2)Cl)N)C3=NC=NC4=C3C=CN4 [Capivasertib]; details: max 10 µM
Method in brief: as §1

Cell Line	IC50, cell viability 72 h [1]	IC50, cell viability 72 h [2]	IC50, cell viability 72 h [3]	IC50, cell viability 72 h [4]	IC50, cell viability 72 h [5]	IC50, cell viability 72 h [6]	IC50, cell viability 72 h [7]	IC50, cell viability 72 h [8]	IC50, cell viability 72 h [9]	IC50, cell viability 72 h [10]	IC50, cell viability 72 h [11]	IC50, cell viability 72 h [12]	IC50, cell viability 72 h [13]	IC50, cell viability 72 h [14]	IC50, cell viability 72 h [15]	IC50, cell viability 72 h [16]	IC50, cell viability 72 h [17]	IC50, cell viability 72 h [18]	IC50, cell viability 72 h [19]	IC50, cell viability 72 h [20]	IC50, cell viability 72 h [21]	IC50, cell viability 72 h ([22]; max 10 µM)	IC50, cell viability 72 h [23]	IC50, cell viability 72 h [24]	IC50, cell viability 72 h [25]	IC50, cell viability 72 h [26]	IC50, cell viability 72 h [27]	IC50, cell viability 72 h [28]	IC50, cell viability 72 h [29]	IC50, cell viability 72 h [30]	IC50, cell viability 72 h [31]	IC50, cell viability 72 h [32]	IC50, cell viability 72 h [33]	IC50, cell viability 72 h [34]	IC50, cell viability 72 h [35]	IC50, cell viability 72 h [36]	IC50, cell viability 72 h ([22]; max 3 µM)
MRK-nu-1 (Breast Carcinoma)	> 10000 nM	> 10000 nM	1660 nM	> 1000 nM	4.68 nM	> 10000 nM	> 300 nM	> 1000 nM	> 2000 nM	> 1 nM	816 nM	35.2 nM	> 3000 nM	> 1000 nM	3630 nM	6130 nM	> 10000 nM	220 nM	629 nM	> 1000 nM	> 10000 nM	> 10000 nM	> 10000 nM	> 1000 nM	9310 nM	46.7 nM	> 10000 nM	> 10000 nM	> 10000 nM	> 10000 nM	> 10000 nM	95.7 nM	> 5000 nM	> 10000 nM	18400 nM		
OCI-M1 (Acute Myeloid Leukemia)			426 nM	35.4 nM		9530 nM	> 300 nM	> 1000 nM	> 2000 nM	> 1 nM	> 1000 nM	13.4 nM	> 3000 nM	131 nM	516 nM		> 10000 nM	18.6 nM	443 nM	16.2 nM	> 10000 nM		1400 nM	> 1000 nM	657 nM	> 1000 nM	> 10000 nM	> 10000 nM	1810 nM		> 10000 nM			> 10000 nM		> 10000 nM	> 3000 nM
NCI-H1944 (Lung Adenocarcinoma)			839 nM	733 nM		> 10000 nM	> 300 nM	> 1000 nM	> 2000 nM	> 1 nM	> 1000 nM	134 nM	> 3000 nM	> 1000 nM	4870 nM		> 10000 nM	134 nM	> 1000 nM	491 nM	> 10000 nM		> 10000 nM	> 1000 nM	3980 nM	> 1000 nM	> 10000 nM	1600 nM	> 10000 nM		> 10000 nM			> 10000 nM		7930 nM	> 3000 nM
SBC-5 (Small Cell Lung Carcinoma)			1140 nM	> 1000 nM		> 10000 nM	> 300 nM	> 1000 nM	> 2000 nM	> 1 nM	> 1000 nM	20.2 nM	> 3000 nM	> 1000 nM	3250 nM		> 10000 nM	79.5 nM	> 1000 nM	507 nM	> 10000 nM		7270 nM	> 1000 nM	5870 nM	> 1000 nM	> 10000 nM	4640 nM	> 10000 nM		> 10000 nM			> 10000 nM		> 10000 nM	> 3000 nM
SCC90 (Head and Neck Carcinoma)			> 3000 nM	7.16 nM		> 10000 nM	> 300 nM	> 1000 nM	> 2000 nM	> 1 nM	> 1000 nM	> 300 nM	> 3000 nM	> 1000 nM	7380 nM		970 nM	122 nM	> 1000 nM	> 1000 nM	882 nM		> 10000 nM	> 1000 nM	> 10000 nM	266 nM	> 10000 nM	1900 nM	497 nM		8220 nM			> 10000 nM		2300 nM	> 3000 nM
IGROV-1 (Ovarian Carcinoma)			191 nM	19.6 nM		5560 nM	> 300 nM	> 1000 nM	16.9 nM	> 1 nM	> 1000 nM	177 nM	> 3000 nM	> 1000 nM	1630 nM		1550 nM	54 nM	924 nM	390 nM	764 nM		9830 nM	> 1000 nM	2900 nM	> 1000 nM	> 10000 nM	17.2 nM	1070 nM					> 10000 nM		438 nM	1320 nM
